Molecules are shown by their SMILES. Numbered stars: 1 amine (or outer) side, 2 acyl side, 3 side chain; on linkers, the order of the positions; unused ones are H or OH. Bridge positions count the residues as written; N and C are the ends. Square brackets hold non-standard residues; d marks the D form. Peptide text beside a SMILES is read from it. * marks the point of attachment. ξ: configuration not given here. Phe(3-CF3) = N[C@@H](Cc1cccc(C(F)(F)F)c1)C(=O)O; Phe(4-COOH) = N[C@@H](Cc1ccc(C(=O)O)cc1)C(=O)O; d(γGlu) = O=C(O)[C@@H](CCC(=O)[*:2])N[*:1]; Bip = N[C@@H](Cc1ccc(-c2ccccc2)cc1)C(=O)O; d(βAsp) = O=C(O)[C@@H](CC(=O)[*:2])N[*:1]; NH(CH2)14COOH = O=C(O)CCCCCCCCCCCCCCN*; Phe(3-Me) = Cc1cccc(C[C@H](N)C(=O)O)c1; γGlu = O=C(O)[C@H](CCC(=O)[*:2])N[*:1]; βAsp = O=C(O)[C@H](CC(=O)[*:2])N[*:1]; NH(CH2)12COOH = O=C(O)CCCCCCCCCCCCN*; Val(3-OH) = CC(C)(O)[C@H](N)C(=O)O; hhGln = NC(=O)CCCC[C@H](N)C(=O)O; 4Pal = N[C@@H](Cc1ccncc1)C(=O)O; Cha = N[C@@H](CC1CCCCC1)C(=O)O; Cit = NC(=O)NCCC[C@H](N)C(=O)O; Thr(3ξ) = CC(O)[C@H](N)C(=O)O; PEG4 = NCCOCCOCCOCCOCCC(=O)O; 12Ado = NCCCCCCCCCCCC(=O)O; Carboxymethyl = O=C(O)C*; Orn = NCCC[C@H](N)C(=O)O; Aun = NCCCCCCCCCCC(=O)O; Dab = NCC[C@H](N)C(=O)O; Dap = NC[C@H](N)C(=O)O; AEEA = NCCOCCOCC(=O)O

T1 sequence (Q15116 25-288): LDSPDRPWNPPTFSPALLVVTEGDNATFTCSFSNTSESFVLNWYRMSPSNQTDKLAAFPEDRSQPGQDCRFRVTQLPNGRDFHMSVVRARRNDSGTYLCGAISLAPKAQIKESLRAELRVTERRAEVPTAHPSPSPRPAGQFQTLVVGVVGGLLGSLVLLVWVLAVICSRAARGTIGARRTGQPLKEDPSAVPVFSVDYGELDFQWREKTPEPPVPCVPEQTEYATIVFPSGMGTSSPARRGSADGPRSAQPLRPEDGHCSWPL

This experiment has as its target T1, PD-1/PD-L1 interaction (PE-labeled human PD-L1-Ig binding to Jurkat cell line over-expressing human PD-1) (Homo sapiens, UniProt Q15116).
T1 construct: expressed in transfected cells; host or cells: Jurkat
Kind of experiment: Jurkat-PD-1 Cell Binding High-Content Screening Assay (CBA). The format is cell-based. The following applies: Jurkat cell line over-expressing human PD-1; PE-labeled PD-L1-Ig 20 nM final; read-out: Jurkat hPD1-PDL1 IC50. A digest of the protocol:
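Jurkat cells over-expressing human PD-1 (8×10^3 per well, DMEM/10% FCS) preincubated with compound 2 h at 37° C, then PE-labeled human PD-L1-Ig (20 nM final) added for 1 h. Cells fixed with paraformaldehyde, Hoechst-stained, and bound fluorescence quantified by high-content imaging.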
Take `Cc1cccc(C[C@@H]2NC(=O)[C@H](CC(=O)O)NC(=O)[C@H](Cc3ccc(OCC(=O)O)cc3)NC(=O)[C@H](CCCNC(=N)N)NC(=O)CSC[C@@H](C(=O)NCCOCCOCC(=O)NCCCCCCCCCCC(=O)O)NC(=O)[C@H](C(C)O)NC(=O)[C@H](C(C)C)NC(=O)[C@H](CC3CCCCC3)NC(=O)[C@H](CCN)NC(=O)[C@@H](CC(C)C)NC(=O)[C@H](CCCN)NC(=O)[C@H](Cc3ccc(OCC(=O)O)cc3)NC(=O)[C@H](Cc3ccc(-c4ccccc4)cc3)NC(=O)[C@H](Cc3ccc(OCC(=O)O)cc3)NC2=O)c1` (stereo partly drawn) [Compound 3477] ({CH2CO}-RY(Carboxymethyl)D[Phe(3-Me)]Y(Carboxymethyl)[Bip]Y(Carboxymethyl)[Orn][dL][Dab][Cha]V[Thr(3ξ)]C[AEEA][Aun]-OH; thioether N-14): the IC50 (commonly the midpoint of a concentration-inhibition curve) stood at 38.4 nM.

Regarding `CC(=O)NCCCC[C@@H]1NC(=O)[C@H](C(C)(C)O)NC(=O)[C@H](CC2CCCCC2)NC(=O)[C@H](CCN)NC(=O)[C@@H](CC(C)C)NC(=O)[C@H](CCCN)NC(=O)[C@H](Cc2ccc(C(=O)O)cc2)NC(=O)[C@H](Cc2ccc(-c3ccccc3)cc2)NC(=O)[C@H](Cc2ccc(C(=O)O)cc2)NC(=O)[C@H](Cc2cccc(C(F)(F)F)c2)NC(=O)[C@H](CC(=O)O)NC(=O)[C@H](Cc2ccc(OCC(=O)O)cc2)NC(=O)[C@H](Cc2cnc[nH]2)NC(=O)CSC[C@@H](C(=O)N[C@@H](CCN)C(=O)NCCOCCOCC(=O)N[C@@H](CC(=O)N[C@@H](CC(=O)O)C(=O)NCCCCCCCCCCCCCCC(=O)O)C(=O)O)NC1=O` [Compound 3888] ({CH2CO}-HY(Carboxymethyl)D[Phe(3-CF3)][Phe(4-COOH)][Bip][Phe(4-COOH)][Orn][dL][Dab][Cha][Val(3-OH)]K(Ac)C[Dab][AEEA][βAsp]D-{NH(CH2)14COOH}; thioether N-14), the IC50 turned out to be 116 nM.

Turning to `Cc1cccc(C[C@@H]2NC(=O)[C@H](CC(=O)O)NC(=O)[C@H](Cc3ccc(OCC(=O)O)cc3)NC(=O)[C@H](CCCNC(=N)N)NC(=O)CSC[C@@H](C(=O)N[C@@H](CCCCN)C(=O)N[C@@H](CO)C(=O)NCCCCCCCCCCCC(=O)O)NC(=O)[C@H](C(C)O)NC(=O)[C@H](C(C)C)NC(=O)[C@H](CC3CCCCC3)NC(=O)[C@H](CCN)NC(=O)[C@@H](CC(C)C)NC(=O)[C@H](CCCN)NC(=O)[C@H](CCCNC(N)=O)NC(=O)[C@H](Cc3ccc(-c4ccccc4)cc3)NC(=O)[C@H](C(C)C)NC2=O)c1` (stereo partly drawn) [Compound 3549] ({CH2CO}-RY(Carboxymethyl)D[Phe(3-Me)]V[Bip][Cit][Orn][dL][Dab][Cha]V[Thr(3ξ)]CKS[12Ado]-OH; thioether N-14), the IC50 is 37 nM.

As to `CC(C)C[C@H]1NC(=O)[C@H](CCCN)NC(=O)[C@H](C(C)C)NC(=O)[C@H](Cc2ccc(-c3ccccc3)cc2)NC(=O)[C@H](C(C)C)NC(=O)[C@H](Cc2c[nH]c3ccccc23)NC(=O)[C@H](CC(=O)O)NC(=O)[C@H](Cc2ccc(OCC(=O)O)cc2)NC(=O)[C@H](CN)NC(=O)CSC[C@@H](C(=O)N[C@@H](CCCN)C(=O)NCCCCCCCCCCC(=O)O)NC(=O)[C@H](CCC(=O)O)NC(=O)[C@H](C(C)C)NC(=O)[C@H](CC2CCCCC2)NC(=O)[C@H](Cc2c[nH]cn2)NC1=O` [Compound 2776] ({CH2CO}-[Dap]Y(Carboxymethyl)DWV[Bip]V[Orn][dL]H[Cha]VEC[Orn][Aun]-OH; thioether N-14), the IC50 came to 54.1 nM.

In the case of `CC(C)C[C@H]1NC(=O)[C@H](CCCN)NC(=O)[C@H](Cc2ccc(OCC(=O)O)cc2)NC(=O)[C@H](Cc2ccc(-c3ccccc3)cc2)NC(=O)[C@H](Cc2ccc(C(=O)O)cc2)NC(=O)[C@H](Cc2cccc(C(F)(F)F)c2)NC(=O)[C@H](CC(=O)O)NC(=O)[C@H](Cc2ccc(OCC(=O)O)cc2)NC(=O)[C@H](Cc2ccc(OCC(=O)O)cc2)NC(=O)CSC[C@@H](C(=O)N[C@@H](CCN)C(=O)NCCOCCOCC(=O)N[C@H](CCC(=O)NCCOCCOCC(=O)NCCCCCCCCCCCCC(=O)O)C(=O)O)NC(=O)[C@H](CO)NC(=O)[C@H](C(C)(C)O)NC(=O)[C@H](CC2CCCCC2)NC(=O)[C@H](CCN)NC1=O` [Compound 3904] ({CH2CO}-Y(Carboxymethyl)Y(Carboxymethyl)D[Phe(3-CF3)][Phe(4-COOH)][Bip]Y(Carboxymethyl)[Orn][dL][Dab][Cha][Val(3-OH)]SC[Dab][AEEA][d(γGlu)][AEEA]-{NH(CH2)12COOH}; thioether N-14), the IC50 is 38.1 nM.

In the case of `COC[C@@H]1NC(=O)CSC[C@@H](C(=O)N[C@@H](CCN)C(=O)NCCOCCOCCOCCOCCC(=O)N[C@@H](CCC(=O)N[C@@H](CO)C(=O)NCCCCCCCCCCCCCCC(=O)O)C(=O)O)NC(=O)[C@H](CO)NC(=O)[C@H](C(C)(C)O)NC(=O)[C@H](CC2CCCCC2)NC(=O)[C@H](CCN)NC(=O)[C@@H](CC(C)C)NC(=O)[C@H](CCCN)NC(=O)[C@H](Cc2ccc(C(=O)O)cc2)NC(=O)[C@H](Cc2ccc(-c3ccccc3)cc2)NC(=O)[C@H](Cc2ccc(C(=O)O)cc2)NC(=O)[C@H](Cc2cccc(C(F)(F)F)c2)NC(=O)[C@H](CC(=O)O)NC(=O)[C@H](Cc2ccc(C(=O)O)cc2)NC1=O` [Compound 3908] ({CH2CO}-S(Me)[Phe(4-COOH)]D[Phe(3-CF3)][Phe(4-COOH)][Bip][Phe(4-COOH)][Orn][dL][Dab][Cha][Val(3-OH)]SC[Dab][PEG4][γGlu]S-{NH(CH2)14COOH}; thioether N-14), the IC50 was found to be 125 nM.

For `CC(C)C[C@H]1NC(=O)[C@H](CCCN)NC(=O)[C@H](Cc2ccc(O)cc2)NC(=O)[C@H](Cc2ccc(-c3ccccc3)cc2)NC(=O)[C@H](C(C)C)NC(=O)[C@H](Cc2c[nH]c3ccccc23)NC(=O)[C@H](CC(=O)O)NC(=O)[C@H](Cc2ccc(OCC(=O)O)cc2)NC(=O)[C@H](Cc2ccncc2)NC(=O)CSC[C@@H](C(=O)N[C@@H](CCN)C(=O)NCCCCCCCCCCC(=O)O)NC(=O)[C@H]([C@@H](C)O)NC(=O)[C@H](C(C)C)NC(=O)[C@H](CC2CCCCC2)NC(=O)[C@H](CCN)NC1=O` [Compound 2741] ({CH2CO}-[4Pal]Y(Carboxymethyl)DWV[Bip]Y[Orn][dL][Dab][Cha]VTC[Dab][Aun]-OH; thioether N-14), the IC50 stood at 54.3 nM.

Consider `Cc1cccc(C[C@@H]2NC(=O)[C@H](CC(=O)O)NC(=O)[C@H](Cc3ccc(OCC(=O)O)cc3)NC(=O)[C@H](CN)NC(=O)CSC[C@@H](C(=O)N[C@@H](C)C(=O)N[C@@H](CCC(=O)NCC(=O)NCCCCCCCCCCC(=O)O)C(=O)O)NC(=O)[C@H]([C@@H](C)O)NC(=O)[C@H](C(C)C)NC(=O)[C@H](CC3CCCCC3)NC(=O)[C@H](CCN)NC(=O)[C@@H](CC(C)C)NC(=O)[C@H](CCCN)NC(=O)[C@H](CCCNC(N)=O)NC(=O)[C@H](Cc3ccc(-c4ccccc4)cc3)NC(=O)[C@H](C(C)C)NC2=O)c1` [Compound 1011] ({CH2CO}-[Dap]Y(Carboxymethyl)D[Phe(3-Me)]V[Bip][Cit][Orn][dL][Dab][Cha]VTCA[γGlu]G[Aun]-OH; thioether N-14), for which the IC50 stood at 8.8 nM.

On to `Cc1cccc(C[C@@H]2NC(=O)[C@H](CC(=O)O)NC(=O)[C@H](Cc3ccc(OCC(=O)O)cc3)NC(=O)[C@H](CN)NC(=O)CSC[C@@H](C(=O)N[C@@H](CCCN)C(=O)NCCCCCCCCCCC(=O)O)NC(=O)[C@H]([C@@H](C)O)NC(=O)[C@H](C(C)C)NC(=O)[C@H](CC3CCCCC3)NC(=O)[C@H](Cc3cnc[nH]3)NC(=O)[C@@H](CC(C)C)NC(=O)[C@H](CCCN)NC(=O)[C@H](C(C)C)NC(=O)[C@H](Cc3ccc(-c4ccccc4)cc3)NC(=O)[C@H](C(C)C)NC2=O)c1` [Compound 1109] ({CH2CO}-[Dap]Y(Carboxymethyl)D[Phe(3-Me)]V[Bip]V[Orn][dL]H[Cha]VTC[Orn][Aun]-OH; thioether N-14), for which the IC50 was 37.6 nM.

With `Cc1cccc(C[C@@H]2NC(=O)[C@H](CC(=O)O)NC(=O)[C@H](Cc3ccc(OCC(=O)O)cc3)NC(=O)[C@H](CC(C)C)NC(=O)CSC[C@@H](C(=O)N[C@@H](CCN)C(=O)NCCOCCOCC(=O)N[C@H](CC(=O)NCCOCCOCC(=O)NCCCCCCCCCCCCC(=O)O)C(=O)O)NC(=O)[C@H](CCC(=O)O)NC(=O)[C@H](C(C)(C)O)NC(=O)[C@H](CC3CCCCC3)NC(=O)[C@H](CCN)NC(=O)[C@@H](CC(C)C)NC(=O)[C@H](CCCN)NC(=O)[C@H](Cc3ccc(OCC(=O)O)cc3)NC(=O)[C@H](Cc3ccc(-c4ccccc4)cc3)NC(=O)[C@H](Cc3ccc(OCC(=O)O)cc3)NC2=O)c1` [Compound 3877] ({CH2CO}-LY(Carboxymethyl)D[Phe(3-Me)]Y(Carboxymethyl)[Bip]Y(Carboxymethyl)[Orn][dL][Dab][Cha][Val(3-OH)]EC[Dab][AEEA][d(βAsp)][AEEA]-{NH(CH2)12COOH}; thioether N-14), the IC50 came to 26.3 nM.

Consider `Cc1cccc(C[C@@H]2NC(=O)[C@H](CC(=O)O)NC(=O)[C@H](Cc3ccc(OCC(=O)O)cc3)NC(=O)[C@H](CN)NC(=O)CSC[C@@H](C(=O)N[C@@H](CC(=O)O)C(=O)NCCOCCOCC(=O)NCCCCCCCCCCC(=O)O)NC(=O)[C@H]([C@@H](C)O)NC(=O)[C@H](C(C)C)NC(=O)[C@H](CC3CCCCC3)NC(=O)[C@H](CCN)NC(=O)[C@@H](CC(C)C)NC(=O)[C@H](CCCN)NC(=O)[C@H](CCCNC(N)=O)NC(=O)[C@H](Cc3ccc(-c4ccccc4)cc3)NC(=O)[C@H](C(C)C)NC2=O)c1` [Compound 1036] ({CH2CO}-[Dap]Y(Carboxymethyl)D[Phe(3-Me)]V[Bip][Cit][Orn][dL][Dab][Cha]VTCD[AEEA][Aun]-OH; thioether N-14), for which the IC50 came to 6.8 nM.

As for `CC(C)C[C@H]1NC(=O)[C@H](CCCN)NC(=O)[C@H](CCCCC(N)=O)NC(=O)[C@H](Cc2ccc(-c3ccccc3)cc2)NC(=O)[C@H](C(C)C)NC(=O)[C@H](Cc2c[nH]c3ccccc23)NC(=O)[C@H](CC(=O)O)NC(=O)[C@H](Cc2ccc(OCC(=O)O)cc2)NC(=O)[C@H](CN)NC(=O)CSC[C@@H](C(=O)N[C@@H](CCN)C(=O)NCCOCCOCC(=O)NCCCCCCCCCCC(=O)O)NC(=O)[C@H](CCCCN)NC(=O)[C@H](C(C)C)NC(=O)[C@H](CC2CCCCC2)NC(=O)[C@H](CCN)NC1=O` [Compound 2631] ({CH2CO}-[Dap]Y(Carboxymethyl)DWV[Bip][hhGln][Orn][dL][Dab][Cha]VKC[Dab][AEEA][Aun]-OH; thioether N-14), the IC50 stood at 14.1 nM.

The record behind these values is US20260022142A1, “MACROCYCLIC IMMUNOMODULATORS” (Bristol-Myers Squibb Company, priority 2022, published 2026).
